Each block holds one molecule with its values, some of them ahead of it.
Tests used:
[1] = molecular target: T1, HMG-CoA reductase (Homo sapiens, UniProt P04035); assay: HMG-CoA reductase inhibition, spectrophotometric (absorbance at 340 nm, oxidation of NADPH); format: biochemical; details: for Percentage inhibition HMGR: positive control
T1 construct: oxidation of NADPH by the catalytic subunit of HMG-CoA reductase; purchased
T1 sequence (P04035 426-888 limits assumed): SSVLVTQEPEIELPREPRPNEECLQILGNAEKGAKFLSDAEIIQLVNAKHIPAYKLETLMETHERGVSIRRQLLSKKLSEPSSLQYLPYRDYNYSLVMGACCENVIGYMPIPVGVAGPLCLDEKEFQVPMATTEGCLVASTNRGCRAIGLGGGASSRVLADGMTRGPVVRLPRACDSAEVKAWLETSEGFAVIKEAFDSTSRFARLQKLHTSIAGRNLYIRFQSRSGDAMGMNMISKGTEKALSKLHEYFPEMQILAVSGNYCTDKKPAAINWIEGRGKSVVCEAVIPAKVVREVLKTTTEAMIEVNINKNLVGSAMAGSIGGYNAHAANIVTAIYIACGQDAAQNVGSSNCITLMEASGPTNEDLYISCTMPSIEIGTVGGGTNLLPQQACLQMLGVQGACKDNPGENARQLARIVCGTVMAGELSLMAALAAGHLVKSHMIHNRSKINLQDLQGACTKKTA
Description: The screening was performed with an analysis kit that evaluates inhibition of HMG-CoA reductase. The assay was based on spectrophotometric measurement of the reduction of absorbance at 340 nm, which represents oxidation of NADPH by the catalytic subunit of HMG-CoA reductase in the presence of the HMG-COA substrate. The reaction is as follows: HMG-CoA+2NADPH+2H^+ ? mevalonate+2NADP^++CoA-SH. Modulation of the activity of the enzyme, and in particular its inhibition, was calculated as % variation relative to the activity measured under the control condition, i.e. in the absence of any inhibitor. The biochemical system was verified with the use of a positive control, pravastatin, at the doses of 212.5 mg (100 mM), 80 mg, 40 mg and 20 mg.
A first test session was conducted with pravastatin as positive control at the theoretical concentration calculated as administration dose in the systemic circulation (5 L, mean blood volume of an adult weighing about 70 kg);
Each test was conducted in triplicate, and the compounds were tested at different concentrations. […]

[2] = 250 mg daily for three months, patients with metabolic syndrome; cited from earlier work
[3] = 2022 meta-analysis; dose an essential factor; cited from earlier work
[4] = oral doses from 100 mg to 2800 mg; cited from earlier work
[5] = molecular target: T2, HMG-CoA reductase (Homo sapiens, UniProt P04035); details: 10 μg/mL; compared with pravastatin; cited from earlier work
T2 sequence (P04035 1-888): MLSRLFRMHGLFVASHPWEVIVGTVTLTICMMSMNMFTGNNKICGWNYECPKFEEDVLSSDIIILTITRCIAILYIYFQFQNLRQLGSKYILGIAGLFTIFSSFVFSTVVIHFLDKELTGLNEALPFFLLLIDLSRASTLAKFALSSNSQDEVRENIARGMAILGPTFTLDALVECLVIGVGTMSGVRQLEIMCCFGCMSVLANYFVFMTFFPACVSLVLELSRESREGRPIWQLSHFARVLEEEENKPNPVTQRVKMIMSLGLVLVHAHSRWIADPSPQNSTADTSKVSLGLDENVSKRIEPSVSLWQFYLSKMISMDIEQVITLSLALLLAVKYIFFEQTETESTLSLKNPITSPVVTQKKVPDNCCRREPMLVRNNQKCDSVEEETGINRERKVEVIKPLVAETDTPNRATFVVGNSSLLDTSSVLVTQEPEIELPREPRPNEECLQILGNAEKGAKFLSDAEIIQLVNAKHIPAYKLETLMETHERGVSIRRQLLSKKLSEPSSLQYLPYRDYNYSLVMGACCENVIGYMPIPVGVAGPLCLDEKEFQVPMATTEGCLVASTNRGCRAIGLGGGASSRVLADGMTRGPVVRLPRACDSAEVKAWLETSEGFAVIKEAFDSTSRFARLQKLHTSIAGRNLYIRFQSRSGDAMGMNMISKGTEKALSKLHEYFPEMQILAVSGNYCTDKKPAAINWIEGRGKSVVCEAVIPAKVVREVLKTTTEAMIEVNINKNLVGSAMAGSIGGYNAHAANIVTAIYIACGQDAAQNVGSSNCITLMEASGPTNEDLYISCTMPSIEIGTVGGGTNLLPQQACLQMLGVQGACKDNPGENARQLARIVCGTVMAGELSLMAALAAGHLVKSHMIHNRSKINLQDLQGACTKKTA

[6] = molecular target: T3, HMG-CoA reductase (Rattus norvegicus, UniProt P51639); details: 25 μM; glial cells; cited from earlier work
T3 construct: in an in vitro model with glial cells; host or cells: C6 glioma cells (endogenous enzyme, inferred)
T3 sequence (P51639 1-887): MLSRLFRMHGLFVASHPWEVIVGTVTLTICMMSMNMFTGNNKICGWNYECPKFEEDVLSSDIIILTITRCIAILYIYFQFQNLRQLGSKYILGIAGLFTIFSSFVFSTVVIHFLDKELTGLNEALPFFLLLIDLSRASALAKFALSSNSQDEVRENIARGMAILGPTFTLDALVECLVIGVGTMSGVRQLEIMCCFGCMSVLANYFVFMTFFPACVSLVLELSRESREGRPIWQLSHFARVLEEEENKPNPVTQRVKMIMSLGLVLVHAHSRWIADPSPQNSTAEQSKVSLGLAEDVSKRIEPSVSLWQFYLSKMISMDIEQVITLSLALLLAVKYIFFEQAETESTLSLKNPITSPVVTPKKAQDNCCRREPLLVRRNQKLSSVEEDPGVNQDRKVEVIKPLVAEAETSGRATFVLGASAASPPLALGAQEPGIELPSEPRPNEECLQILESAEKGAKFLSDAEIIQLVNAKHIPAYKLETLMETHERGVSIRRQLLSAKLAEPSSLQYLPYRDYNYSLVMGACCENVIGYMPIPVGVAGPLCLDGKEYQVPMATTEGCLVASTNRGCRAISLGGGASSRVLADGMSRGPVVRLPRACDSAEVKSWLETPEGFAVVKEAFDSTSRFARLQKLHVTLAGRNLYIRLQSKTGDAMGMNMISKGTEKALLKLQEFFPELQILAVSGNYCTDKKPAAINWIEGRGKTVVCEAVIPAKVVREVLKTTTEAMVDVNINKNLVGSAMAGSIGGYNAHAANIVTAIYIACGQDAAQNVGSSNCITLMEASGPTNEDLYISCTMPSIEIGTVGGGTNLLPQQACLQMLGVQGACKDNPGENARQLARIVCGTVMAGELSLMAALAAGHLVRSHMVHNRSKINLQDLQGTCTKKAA

[7] = system: HMG-COA reductase; details: rat hepatocytes, in vitro; cited from earlier work

Percentage inhibition HMGR ([1]; 20 mg (theoretical concentration of dose in 5 L blood)): 56.3%
Percentage inhibition HMGR ([1]; 40 mg (theoretical concentration of dose in 5 L blood)): 68.9%
Percentage inhibition HMGR ([1]; 80 mg (theoretical concentration of dose in 5 L blood)): 85.9%
Compound: CC[C@H](C)C(=O)O[C@H]1C[C@H](O)C=C2C=C[C@H](C)[C@H](CC[C@@H](O)C[C@@H](O)CC(=O)O)[C@H]21 [Pravastatin, pravastatin]

inhibition at 0.0102 µg/mL ([1]; Test 1, 0.0102 μg/ml, 1:200 dilution, oral dose 10 mg, read-out: Percentage inhibition HMGR): 0%
Compound: Oc1ccc(C=Cc2cc(O)cc(O)c2)cc1 [Resveratrol, resveratrol]
total cholesterol level [2]: reduces the total cholesterol level
total cholesterol and LDL cholesterol levels [3]: can be useful to reduce total cholesterol and LDL cholesterol levels

Compound: O=C(O)[C@H]1O[C@@H](Oc2cc3oc(-c4ccccc4)cc(=O)c3c(O)c2O)[C@H](O)[C@@H](O)[C@@H]1O [baicalin]
proportionality in absorption depending on the oral dose [4]: did not indicate a proportionality in absorption
HMG-COA reductase inhibitory activity [5]: lower than with pravastatin

Compound: OCCc1ccc(O)c(O)c1 [hydroxytyrosol]
reduction of HMG-COA reductase activity [6]: 16%
synthesis of fatty acids and cholesterol [6]: downregulating effect

Compound: C/C=C1/[C@H](O[C@@H]2O[C@H](CO)[C@@H](O)[C@H](O)[C@H]2O)OC=C(C(=O)OC)[C@H]1CC(=O)OCCc1ccc(O)c(O)c1 [oleuropein]
activity of HMG-COA reductase [7]: reduces the activity of hydroxymethylglutaryl-CoA reductase
cholesterol synthesis [7]: reduction in cholesterol synthesis
